Reference: ChEMBL document CHEMBL1201862, “PubChem BioAssay data set” (2004)
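Growth conditions: 96-well plates. Treatment: test compound, 48 hours, 5 concentrations. Analysis: linear interpolation between bracketing concentrations; unreached endpoints set to highest concentration. Here, GI50 denotes the concentration required for 50% inhibition of growth.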 Calls of active or inactive are those of the source. No stated cut-off is given here; in the data, active = GI50 up to about 1.1 µM and inactive = higher.

What was measured:
Experiment in all cases: growth of human tumour cells (NCI), 48 h
[1] = system: LOX IMVI
[2] = system: OVCAR-5
[3] = system: SNB-75
[4] = system: RPMI-8226
[5] = system: SK-MEL-28
[6] = system: NCI-H23
[7] = system: SN12C
[8] = system: HOP-92
[9] = system: SK-MEL-2
[10] = system: A498
[11] = system: A549
[12] = system: MDA-MB-435
[13] = system: UO-31
[14] = system: T47D
[15] = system: KM12
[16] = system: Hs-578T
[17] = system: SK-OV-3
[18] = system: UACC-62
[19] = system: K562
[20] = system: HL-60

SMILES	GI50 [1]	GI50 [2]	GI50 [3]	GI50 [4]	GI50 [5]	GI50 [6]	GI50 [7]	GI50 [8]	GI50 [9]	GI50 [10]	GI50 [11]	GI50 [12]	GI50 [13]	GI50 [14]	GI50 [15]	GI50 [16]	GI50 [17]	GI50 [18]	GI50 [19]	GI50 [20]
CC(C)(C)OC(=O)N1CC(O)O[C@H](c2ccccc2)[C@@H]1c1ccccc1 (stereo partly drawn)	35.7 µM (inactive)	17.9 µM (inactive)	24.8 µM (inactive)	24.7 µM (inactive)	18.6 µM (inactive)	15.9 µM (inactive)	38.2 µM (inactive)	16.7 µM (inactive)	14.5 µM (inactive)	21.4 µM (inactive)	18.7 µM (inactive)	17.3 µM (inactive)	17.6 µM (inactive)	31.1 µM (inactive)	19.2 µM (inactive)	32.4 µM (inactive)	14.9 µM (inactive)	14.3 µM (inactive)	33.4 µM (inactive)	–
COc1cc(/C=N/NC(=O)c2c(Cl)c(Cl)c(Cl)c(Cl)c2-c2nc3ccccc3[nH]2)ccc1O	22.4 µM (inactive)	27.9 µM (inactive)	22.9 µM (inactive)	–	33.6 µM (inactive)	19.9 µM (inactive)	24.2 µM (inactive)	10.8 µM (inactive)	20.3 µM (inactive)	27.5 µM (inactive)	29.9 µM (inactive)	29 µM (inactive)	22.4 µM (inactive)	0.56 µM (active)	24.2 µM (inactive)	44 µM (inactive)	35.5 µM (inactive)	15.8 µM (inactive)	20.4 µM (inactive)	21.2 µM (inactive)
C=CCCC(=O)N1CCC(C(=O)OCC)C1=O (stereo not drawn)	> 100 µM (inactive)	> 100 µM (inactive)	> 100 µM (inactive)	–	> 100 µM (inactive)	> 100 µM (inactive)	> 100 µM (inactive)	–	> 100 µM (inactive)	> 100 µM (inactive)	> 100 µM (inactive)	> 100 µM (inactive)	> 100 µM (inactive)	> 100 µM (inactive)	> 100 µM (inactive)	> 100 µM (inactive)	> 100 µM (inactive)	> 100 µM (inactive)	–	> 100 µM (inactive)
O=C1COC(c2ccccc2O)=NN1CCCN1CCCC1	–	> 100 µM (inactive)	> 100 µM (inactive)	> 100 µM (inactive)	> 100 µM (inactive)	> 100 µM (inactive)	> 100 µM (inactive)	> 100 µM (inactive)	> 100 µM (inactive)	> 100 µM (inactive)	> 100 µM (inactive)	> 100 µM (inactive)	> 100 µM (inactive)	> 100 µM (inactive)	> 100 µM (inactive)	> 100 µM (inactive)	> 100 µM (inactive)	> 100 µM (inactive)	–	–
CCN(c1cccc(NC(=S)Nc2ccccc2N(CC)c2cc(-c3ccccc3)no2)c1)c1cc(-c2ccccc2)no1	> 100 µM (inactive)	> 100 µM (inactive)	> 100 µM (inactive)	> 100 µM (inactive)	> 100 µM (inactive)	> 100 µM (inactive)	> 100 µM (inactive)	> 100 µM (inactive)	> 100 µM (inactive)	–	> 100 µM (inactive)	> 100 µM (inactive)	> 100 µM (inactive)	> 100 µM (inactive)	> 100 µM (inactive)	> 100 µM (inactive)	> 100 µM (inactive)	> 100 µM (inactive)	> 100 µM (inactive)	> 100 µM (inactive)
CC(C)(O)C1CC(=O)C(C)(C2C(O)CC3(C)C4CC=C5C(CCC(O)C5(C)C)C4(C)C(=O)CC23C)O1 (stereo not drawn)	> 100 µM (inactive)	> 100 µM (inactive)	42.2 µM (inactive)	> 100 µM (inactive)	> 100 µM (inactive)	> 100 µM (inactive)	> 100 µM (inactive)	91.8 µM (inactive)	> 100 µM (inactive)	> 100 µM (inactive)	> 100 µM (inactive)	> 100 µM (inactive)	> 100 µM (inactive)	> 100 µM (inactive)	> 100 µM (inactive)	> 100 µM (inactive)	> 100 µM (inactive)	> 100 µM (inactive)	> 100 µM (inactive)	–
O=[N+]([O-])c1cccc2nc3ccccc3c(NCCCCNc3c4ccccc4nc4cccc([N+](=O)[O-])c34)c12	0.0621 µM (active)	0.164 µM (active)	0.0859 µM (active)	0.0301 µM (active)	0.164 µM (active)	0.0225 µM (active)	0.0414 µM (active)	0.0233 µM (active)	0.141 µM (active)	–	0.0347 µM (active)	0.0489 µM (active)	0.129 µM (active)	0.0491 µM (active)	0.0401 µM (active)	0.191 µM (active)	0.293 µM (active)	0.134 µM (active)	< 0.0216 µM (active)	< 0.01 µM (active)
CC1(C)CN=C(Nc2ccc(F)cc2)S1	> 100 µM (inactive)	> 100 µM (inactive)	> 100 µM (inactive)	> 100 µM (inactive)	> 100 µM (inactive)	> 100 µM (inactive)	> 100 µM (inactive)	59.7 µM (inactive)	> 100 µM (inactive)	–	> 100 µM (inactive)	> 100 µM (inactive)	> 100 µM (inactive)	> 100 µM (inactive)	> 100 µM (inactive)	> 100 µM (inactive)	> 100 µM (inactive)	> 100 µM (inactive)	> 100 µM (inactive)	> 100 µM (inactive)
